Test: Human HepG2 cell viability assay in 384 well format
Assay type: toxicity, cell-based
Parameters: dose 125 nL, time 70.5 hour; cytotoxicity at 70.5 h: concentration not given beside the values
Details: HepG2 cells, read-out: Inhibition

Row | SMILES | cytotoxicity at 70.5 h [%]
1 | Cc1nc(NCCN2CCCC2=O)cc(C2CN(C(C)C)CCO2)n1 (stereo not given) | 1.39
2 | CC(C)c1nc2n(n1)CC(NCCc1cccs1)CC2 (stereo not given) | -5.42
3 | CC(C)OCCN1CCN(C(C)c2nc(C3CC3)no2)CC1 (stereo not given) | 17.9
4 | COc1ccc(NCc2nc(=O)n(CCC(C)C)[nH]2)cc1 | -14.5
5 | CCc1n[nH]c(C2CN(C(=O)c3cnc[nH]3)CCO2)n1 (stereo not given) | -15.6
6 | O=C(NCC(Cc1cccc(F)c1)n1cccc1)C1CC1 (stereo not given) | -16.2
7 | Cc1ccc(C(CCNCCCN(C)C)C2CCOC(C)(C)C2)cc1 (stereo not given) | 30.6
8 | CN(C)C(=O)CN1C[C@@H]2CC[C@H](C1)N(C(=O)CCCn1cncn1)C2 | -8.72
9 | CN1CCOC(CNCc2cccc(OCc3ccccn3)c2)C1 (stereo not given) | -3.38
10 | CC(C)CCN1CCCC(Cn2cc(CCO)nn2)C1 (stereo not given) | -2.37
11 | CCOc1ncnc2c1CCN(Cc1csc(C)n1)CC2 | 18.8
12 | CCS(=O)(=O)N1CCn2c(COCC3CCOCC3)cnc2C1C (stereo not given) | -5.13
13 | CS(=O)(=O)N1CCO[C@@H]2CN(C(=O)c3cccnc3)C[C@@H]2C1 | -2.16
14 | O=C(Cc1cc(-c2ccc3c(c2)OCO3)on1)NC1CCCC1 | -8.33
15 | Cc1nn(C)cc1C1CC(=O)Nc2c1cnn2C(C)C (stereo not given) | -10.7
16 | O=S1(=O)NC2(CCCN(Cc3ccc(F)cc3)C2)COc2ccccc21 (stereo not given) | -3.88
17 | Cc1nc(N2CCN(C(=O)c3ccccn3)CC2)c2c(n1)c(C)nn2C | -8.87
18 | Cc1noc(C)c1C(=O)NCc1ccc(N2CCCCCC2)nc1 | -6.77
19 | Cc1nc(CN2CCN(Cc3ccoc3)Cc3cccnc32)cs1 | 32.4
20 | O=C1NC2(CCN(c3ncccn3)CC2)CC1c1cccnc1 (stereo not given) | -7.58
21 | CC1CN(C)CCN1C(=O)c1cnc2c(cnn2C2CCCC2)c1 (stereo not given) | -2.54
22 | Cc1ccc(NCCNC(=O)C2Cc3cc(C)c(C)cc3O2)nn1 (stereo not given) | -2.18
23 | CCCn1cc(C(=O)NC(C)c2c(C)nn(CC)c2C)c(C)n1 (stereo not given) | -8.59
24 | COc1ncccc1CN1C[C@H]2C[C@@H](C(=O)NCC3CC3)N(C)[C@H]2C1 | -12.9
25 | CNC(=O)N1CCN(C(=O)C(C)C)CC2(CC(=O)N(C)C2)C1 (stereo not given) | -5.77
26 | CC(C)C(C)(C#N)NC(=O)Cn1cc(C(N)=O)c(-c2ccccc2)n1 (stereo not given) | -6.34
27 | Fc1ccc(CN2CCCC(c3cc4ncccc4[nH]3)C2)cc1 (stereo not given) | 3.04

Row | SMILES | cytotoxicity at 70.5 h [%]
28 | COc1ccc(C(=O)NCCCC2(C3OCCO3)CCOCC2)cc1 | -1.34
29 | COCCCn1ccc(NC(=O)NCCCn2ccnc2)n1 | -18.9
30 | O=C(c1ccno1)N1CCC2(CC(=O)N(c3ccc4c(c3)OCO4)C2)C1 (stereo not given) | -0.613
31 | CC1(c2[nH]ncc2C(N)=O)CCN(S(=O)(=O)c2ccccc2)CC1 | -2.57
32 | O=C(NC1(c2nc(C3CC3)no2)CCCCC1)c1ccncc1 | 5.56
33 | Fc1ccc(OCc2nnc([C@H]3CCN(Cc4cccnc4)C3)o2)cc1 | -6.19
34 | CCN1Cc2nccn2CC(COCc2csc(C)n2)C1 (stereo not given) | -3.32
35 | CC(=O)N1CC2(CCNCC2)c2cc(Cl)ccc21 | -6.66
36 | Cc1nc(CN2CCCn3cnc(COC(C)C)c3C2)cs1 | -2.95
37 | Cc1nc2n(n1)CC(NCCCc1nc(-c3cccs3)no1)CC2 (stereo not given) | 4.3
38 | Cc1cc(C)n(-c2ccc(C(C)NS(=O)(=O)CCCS(C)(=O)=O)cc2)n1 (stereo not given) | 19.6
39 | CCN(CC)C(CNS(=O)(=O)NCc1ccccc1)c1ccco1 (stereo not given) | -2.25
40 | CCc1n[nH]c(=O)c(C(=O)N2CCOC3(CCCC3)C2)c1CC | -2.62
41 | Cc1ccc(C)c(C(NC2CCCC2)c2cccnc2)c1 (stereo not given) | 7.4
42 | CC(=O)NCC(=O)N1CCN(Cc2ccncc2)c2ncccc2C1 | 16.8
43 | O=C(c1n[nH]cc1Cl)N1CCOCC1 | -6.1
44 | NC(=O)C(c1ccc(F)cc1)N1CCN(CCO)CC1 (stereo not given) | -6.75
45 | CN1Cc2nnc(C3CCOCC3)n2C(Cc2c[nH]cn2)C1 (stereo not given) | -1.52
46 | COc1ccc(C(C(=O)O)N(C)Cc2c(C)nn(C)c2C)c(C)c1 (stereo not given) | -10
47 | O=C(NCC1CC1)C1CCCN(c2cccc(C(F)(F)F)n2)C1 (stereo not given) | 19.6
48 | CN1C[C@H](O)[C@]2(CCN(C(=O)NCc3ccccc3)C2)S1(=O)=O | -8.64
49 | CC(NCc1cn(CCC(N)=O)c2ccccc12)c1nncn1C (stereo not given) | 23.7
50 | O=C(NC1CCCC1)[C@H]1CC[C@@H]2[C@@H](CCN2c2ncc(F)cn2)O1 | 13.4
51 | CCCn1nc(-c2nc(COc3ccccc3)no2)ccc1=O | -7.31
52 | CC(C)c1cc(C(=O)NCC2CCCN(C(C)C)C2)n(C)n1 (stereo not given) | -0.374
53 | Cc1ccsc1CNC(=O)CC1CN(C(=O)OC(C)(C)C)C1 | -9.31
54 | Cc1cccc(CN2C[C@@H]3CN(C4CCOCC4)C[C@@H]3C2=O)c1 | -4.96

Row | SMILES | cytotoxicity at 70.5 h [%]
55 | COCCN(Cc1ccco1)Cc1nc(-c2ccccc2)no1 | 19.2
56 | Cc1nc(CN2CCCN(C(=O)c3cnccn3)CC2)cs1 | -3.13
57 | O=C(Nc1ccccc1F)c1nn(C2CCS(=O)(=O)C2)c2c1CCCC2 (stereo not given) | -7.2
58 | Cc1cc(NC(=O)CNc2cccc(C(=O)N3CCCC(O)C3)c2)no1 (stereo not given) | -3.66
59 | CSCc1noc(CNC(=O)C2CCN(C(C)C)CC2)n1 | -12
60 | COCCc1nnc(NC(=O)CSCc2ccccc2)o1 | 1.82
61 | COc1cccc(S(=O)(=O)NC(=O)c2c(C)noc2C(C)C)c1 | -3.75
62 | O=C(C1CC1)N1CCC(c2nc(-c3ccccc3)n[nH]2)CC1 | -1.09
63 | COc1ccc(C(=O)N2CC(=O)N(C3CCC3)CC(O)C2)c(OC)c1 (stereo not given) | -1.09
64 | Cn1nc2c(cc1=O)CN(c1ncnc3sccc13)CC2 | 5.63
65 | Cc1ccc(NC2CCN(C(=O)COc3ccccc3)CC2)nn1 | -15.7
66 | Cc1cccc(CN2CCCn3c(nnc3Cn3cccn3)C2)n1 | 10.9
67 | CC(C)Cc1cc(C(=O)N2CCC(C(=O)N3CCOCC3)CC2)on1 | -7.8
68 | c1cnc(N2CC3(CCN(C4CCOCC4)CC3)c3ccccc32)nc1 | -0.647
69 | COc1ccc(-n2c(SCC(=O)O)nnc2-c2cn[nH]c2)cc1 | 15.3
70 | O=C(NCCCN1CCOCC1)c1ccn(COc2ccccc2)n1 | -7.55
71 | COc1cc(C(=O)N2CC[C@@H](NC(=O)c3ccccn3)[C@H](O)C2)ccn1 | -9.28
72 | O=C(NCCNc1cnccn1)N1CCCC1 | 5.69
73 | COCC1CN(C(=O)Cc2cccs2)Cc2c1cnn2C (stereo not given) | 21.2
74 | CN(C)Cc1ccc(NC(=O)c2nccn3ccnc23)cc1 | -4.61
75 | CCN(CC)C(=O)N1CCN(C(=O)C2CCCc3[nH]ncc32)CC1 (stereo not given) | -3.25
76 | CCN1C(=O)CC(c2ccccc2)C12CCN(CC1CCOCC1)CC2 (stereo not given) | -8.46
77 | CNC(=O)C(C)(C)NC(=O)c1cc(COc2ccccc2OC)[nH]n1 | -8.56
78 | Cc1ccc(N2CCC(C(O)Cc3ccccc3)CC2)nn1 (stereo not given) | 1.34
79 | CCc1ocnc1C(=O)N1CCC(n2cc(-c3ccsc3)nn2)CC1 | -10.3
80 | CN1CCN(C[C@@H]2CN(C(=O)c3ccccc3C#N)C[C@@H]2CO)CC1 | 13.9
